In patent publication US20220125944A1, “ANTIBODY-DRUG CONJUGATE AND USE THEREOF” (priority 2019, published 2022):
Like-named read-outs stand apart in the source and are kept apart here.

Experiments:
Mino = experiment: Cytotoxicity of linker-drug complex, Mino; type: cell-based; conditions: Homo sapiens
Method: (§1) The cytotoxicity of the linker-drug complex itself prepared to contain beta-galactosidase was evaluated. Specifically, each of the linker-drug complexes dissolved in DMSO was serially diluted 3× from 200 nM to 30 pM in a medium for cell culture to prepare a sample, and various cancer cell lines were treated with the sample to finally expose the cells to 100 nM to 15 pM the linker-drug complexes. The cells were cultured for 6 days, cell viability was observed using a CCK-8 cell-counting kit and cytotoxicity was evaluated.

Jeko-1 = experiment: Cytotoxicity of linker-drug complex, Jeko-1; type: cell-based; conditions: Homo sapiens
Method: as §1

Daudi = experiment: Cytotoxicity of linker-drug complex, Daudi; type: cell-based; conditions: Homo sapiens
Method: as §1

Raji = experiment: Cytotoxicity of linker-drug complex, Raji; type: cell-based; conditions: Homo sapiens
Method: as §1

697 = experiment: Cytotoxicity of linker-drug complex, 697; type: cell-based
Method: as §1

jurkat = experiment: Cytotoxicity of linker-drug complex, jurkat; type: cell-based; conditions: Homo sapiens
Method: as §1

H929 = experiment: Cytotoxicity of linker-drug complex, H929; type: cell-based; conditions: Homo sapiens
Method: as §1

OPM-2 = experiment: Cytotoxicity of linker-drug complex, OPM-2; type: cell-based; conditions: Homo sapiens
Method: as §1

U266 = experiment: Cytotoxicity of linker-drug complex, U266; type: cell-based; conditions: Homo sapiens
Method: as §1

Calu-6 = experiment: Cytotoxicity of linker-drug complex, Calu-6; type: cell-based; conditions: Homo sapiens
Method: as §1

HCC1954 = experiment: Cytotoxicity of linker-drug complex, HCC1954; type: cell-based; conditions: Homo sapiens
Method: as §1

JIMT1 = experiment: Cytotoxicity of linker-drug complex, JIMT1; type: cell-based; conditions: Homo sapiens
Method: as §1

NCI-N87 = experiment: Cytotoxicity of linker-drug complex, NCI-N87; type: cell-based; conditions: Homo sapiens
Method: as §1

NaPi2b [1] = molecular target: T1, NaPi2b (UniProt O95436 1-690, limits assumed); experiment: cell-based or functional assay
T1 sequence (looked up): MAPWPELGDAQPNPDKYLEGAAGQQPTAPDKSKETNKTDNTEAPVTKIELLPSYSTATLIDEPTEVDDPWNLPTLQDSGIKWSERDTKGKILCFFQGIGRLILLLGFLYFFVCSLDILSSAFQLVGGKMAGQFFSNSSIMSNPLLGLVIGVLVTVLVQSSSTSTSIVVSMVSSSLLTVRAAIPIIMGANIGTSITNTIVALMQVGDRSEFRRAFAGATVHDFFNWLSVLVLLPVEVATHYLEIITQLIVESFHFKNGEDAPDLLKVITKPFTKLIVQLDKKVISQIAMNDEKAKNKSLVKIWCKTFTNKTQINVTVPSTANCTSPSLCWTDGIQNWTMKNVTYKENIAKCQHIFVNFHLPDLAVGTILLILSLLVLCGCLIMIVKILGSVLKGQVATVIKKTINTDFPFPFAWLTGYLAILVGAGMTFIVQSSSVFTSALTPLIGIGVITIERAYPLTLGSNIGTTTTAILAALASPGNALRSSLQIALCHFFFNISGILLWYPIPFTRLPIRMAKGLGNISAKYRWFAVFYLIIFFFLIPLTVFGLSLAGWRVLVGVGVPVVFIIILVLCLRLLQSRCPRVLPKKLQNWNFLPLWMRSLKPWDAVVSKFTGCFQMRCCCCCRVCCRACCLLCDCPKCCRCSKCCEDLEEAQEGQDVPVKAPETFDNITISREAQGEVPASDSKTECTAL

NaPi2b [2] = molecular target: T1, NaPi2b; experiment: cell-based or functional assay; remark: listed apart in the source
CLL-1 = molecular target: T2, CLL-1 (UniProt Q5QGZ9 1-265, limits assumed); experiment: cell-based or functional assay
T2 sequence (looked up): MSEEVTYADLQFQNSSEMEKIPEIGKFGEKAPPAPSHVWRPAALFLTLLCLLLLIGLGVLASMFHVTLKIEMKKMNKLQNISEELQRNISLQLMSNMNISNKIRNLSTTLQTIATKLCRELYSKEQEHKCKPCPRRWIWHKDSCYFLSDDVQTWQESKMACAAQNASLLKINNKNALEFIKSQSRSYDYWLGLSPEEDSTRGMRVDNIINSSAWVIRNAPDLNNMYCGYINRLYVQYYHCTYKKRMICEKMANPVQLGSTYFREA

O=C(CCCCCN1C(=O)C=CC1=O)NCCOc1cc(/C=C/C(=O)N2C[C@@H](CCl)c3c2cc(O[C@@H]2O[C@H](CO)[C@H](O)[C@H](O)[C@H]2O)c2ccccc32)ccc1/C=C/C(=O)N1C[C@@H](CCl)c2c1cc(O[C@@H]1O[C@H](CO)[C@H](O)[C@H](O)[C@H]1O)c1ccccc21 [PD001]
IC50 (Mino; 144 h, read-out: IC50 #1): 3.26 nM
IC50 (Mino; 144 h, read-out: IC50 #2): 2.34 nM
IC50 (Mino; read-out: IC50 Mean): 2.76 nM
IC50 (Jeko-1; JeKo-1, 144 h, read-out: IC50 #1): 13.1 nM
IC50 (Jeko-1; JeKo-1, read-out: IC50 #2): 31.7 nM
IC50 (Jeko-1; JeKo-1, read-out: IC50 Mean): 20.4 nM
IC50 (Daudi; 144 h, read-out: IC50 #1): 12.5 nM
IC50 (Daudi; read-out: IC50 #2): 9.46 nM
IC50 (Daudi; read-out: IC50 Mean): 10.9 nM
IC50 (Raji; 144 h, Burkitt's lymphoma, run #1, 6 days, CCK-8, read-out: IC50 #1): 30.8 nM
IC50 (Raji; mean of #1 and #2, read-out: IC50 Mean): 18.4 nM
IC50 (Raji; run #2, read-out: IC50 #2): 11 nM
IC50 (697; 144 h, read-out: IC50 #1): 4.78 nM
IC50 (697; read-out: IC50 #2): 3.72 nM
IC50 (697; read-out: IC50 Mean): 4.22 nM
IC50 (jurkat; 144 h, read-out: IC50 #1): 14.5 nM
IC50 (jurkat; read-out: IC50 #2): 1.12 nM
IC50 (jurkat; read-out: IC50 Mean): 12.7 nM
IC50 (H929; NCI-H929, 144 h, read-out: IC50 #1): 20.3 nM
IC50 (H929; NCI-H929, read-out: IC50 #2): 26.4 nM
IC50 (H929; NCI-H929, read-out: IC50 Mean): 23.1 nM
IC50 (OPM-2; OPM-2, 144 h, read-out: IC50 #1): 26.2 nM
IC50 (OPM-2; OPM-2, read-out: IC50 #2): 25.6 nM
IC50 (OPM-2; OPM-2, read-out: IC50 Mean): 25.9 nM
IC50 (U266; U-266, 144 h, read-out: IC50 #1): 7.97 nM
IC50 (U266; U-266, read-out: IC50 #2): 5.61 nM
IC50 (U266; U-266, read-out: IC50 Mean): 6.69 nM
IC50 (Calu-6; Calu-6, 144 h, read-out: IC50 #1): 58.9 nM
IC50 (Calu-6; Calu-6, read-out: IC50 #2): 52.2 nM
IC50 (Calu-6; Calu-6, read-out: IC50 Mean): 55.4 nM
IC50 (HCC1954; HCC1954, 144 h, read-out: IC50 #1): 25 nM
IC50 (HCC1954; HCC1954, read-out: IC50 #2): 16.4 nM
IC50 (HCC1954; HCC1954, read-out: IC50 Mean): 20.2 nM
IC50 (JIMT1; JIMT-1, 144 h, read-out: IC50 #1): 47 nM
IC50 (JIMT1; JIMT-1, read-out: IC50 #2): 24.9 nM
IC50 (JIMT1; JIMT-1, read-out: IC50 Mean): 34.2 nM
IC50 (NCI-N87; NCI-N87, 144 h, read-out: IC50 #1): 8.06 nM
IC50 (NCI-N87; NCI-N87, read-out: IC50 #2): 9.09 nM
IC50 (NCI-N87; NCI-N87, read-out: IC50 Mean): 8.56 nM

B1: D20002 (10H1-PD001) (antibody, human IgG1, kappa, V domains shown)
VH: EVQLVESGGGLVQPGGSLRLSCAASGFSFSDFAMSWVRQAPGKGLEWVATIGRVAFHTYYPDSMKGRFTISRDNSKNTLYLQMNSLRAEDTAVYYCARHRGFDVGHFDFWGQGTLVTVSS
VL: DIQMTQSPSSLSASVGDRVTITCRSSETLVHSSGNTYLEWYQQKPGKAPKLLIYRVSNRFSGVPSRFSGSGSGTDFTLTISSLQPEDFATYYCFQGSFNPLTFGQGTKVEIKR
modifications: linker-drug PD001 conjugated to a cysteine put in place of lysine 149 (Kabat numbering) of the light chain
IC50, cytotoxicity on OVCAR-3 (NaPi2b [1]): 1.53 nM
non-binder/binder ratio on OVCAR-3 (NaPi2b [1]): ≥ 100
IC50 (nM), cytotoxicity on OVCAR3 (NaPi2b [2]): 1.5 nM

B2: D20502 (6E7-PD009) (antibody, human IgG1, kappa, V domains shown)
VH: B1 VH
VL: DIQMTQSPSSLSASVGDRVTITCRASQSVSTSSYNYMHWYQQKPGKPPKLLIKYASNLESGVPSRFSGSGSGTDFTLTISSLQPEDFATYYCQHSWEIPLTFGQGTKVEIKR
modifications: linker-drug PD009 conjugated to a cysteine put in place of lysine 149 (Kabat numbering) of the light chain
IC50 (nM), cytotoxicity on EDL-1 (AML) (CLL-1): 0.3 nM
